Results: EP4799620A1, “ORAL PHARMACEUTICAL FORM FOR BIPHASIC RELEASE, COMPOSED OF A MULTIP[…], PROCESS FOR PREPARING SAME AND […] USE OF ORAL FORM” (Prati, Donaduzzi & Cia LTDA, priority 2023, dated 2025)
Read-outs that look alike come from different tables or passages of the source.

What was measured:
[1] = test system: postmenopausal women; conditions: trazodone 50-100 mg/day; cited from earlier work
[2] = cited from earlier work
[3] = test system: healthy volunteers; conditions: daily doses of 50 and 100 mg; cited from earlier work
[4] = test system: pregnant women; conditions: 50 mg/day; 67 pregnant women; third trimester of pregnancy; cited from earlier work
[5] = test system: patients with secondary insomnia; assay: Randomized, controlled, cross-over clinical trial: actigraphy analysis; format: in vivo
Method: (§1) Based on the foregoing, a double-blind clinical trial was conducted to evaluate the impact of the medication on sleep quality and total sleep time, as well as to quantify the reduction in sleep latency in patients diagnosed with comorbid insomnia, through actigraphy and assessment scales.
(§2) The objective of the clinical trial was to evaluate the impact of the medication on sleep quality and total sleep time, as well as to quantify the reduction in sleep latency in patients diagnosed with comorbid insomnia, through actigraphy and assessment scales. The study was conducted with 30 patients.
Of the 29 patients, 24 correctly completed the proposed actigraphy usage period. TABLE 2: ACTIGRAPHY ANALYSIS RESULTS.

[6] = in water; cited from earlier work
[7] = test system: patients with secondary insomnia; assay: Randomized, controlled, cross-over clinical trial: questionnaires and subjective sleep perception; format: in vivo; conditions: for Sleep latency / Total sleep time: subjective
Method: as §1, §2
TABLE 1: RESULTS OF THE ANALYSIS OF THE QUESTIONNAIRES AND OF THE SUBJECTIVE SLEEP PERCEPTION.

[8] = 50 mg/day; double-blind controlled study; cited from earlier work
[9] = test system: patients with Alzheimer's disease; conditions: 50 mg/day; cited from earlier work

In the case of `CN1CCN(C(=O)OC2c3nccnc3C(=O)N2c2ccc(Cl)cn2)CC1` (stereo not drawn) [zopiclone], the “sleep quality and sexual dysfunction” value [1] is listed as “improved”.
In the case of `O=c1n(CCCN2CCN(c3cccc(Cl)c3)CC2)nc2ccccn12` [Trazodone], the solubility ([2]; above its pKa, neutral and basic conditions) is listed as “very low”, the solubility ([2]; acidic medium, pH of the medium below its pKa) is listed as “highly soluble” and the “slow waves during sleep” value [3] is listed as “increased”. For the same compound, the “Sedative effects for the treatment of insomnia” value [4] was “efficacy”, the Awakenings ([5]; 50mg, Actigraphy 1) was 12.97±3.85@ and the Sleep latency ([5]; 50mg, Actigraphy 1) was 6.13 ± 5.56 min. For the same compound, the Total sleep time ([5]; 50mg, Actigraphy 1) was 50mg 461.80±106.60 min, the WASO ([5]; 50mg, Actigraphy 1) was 84.20 ± 26.09 min and the Awakenings ([5]; 50mg, Actigraphy 2) was 10.68±3.44. The Sleep latency ([5]; 50mg, Actigraphy 2) was 7.16 ± 7.48 min, the Total sleep time ([5]; 50mg, Actigraphy 2) was 479.90 ± 95.25 min and the WASO ([5]; 50mg, Actigraphy 2) was 75.38 ± 29.34 min. For the same compound, the Awakenings ([5]; 50mg, Actigraphy 3) was 11.35±3.59@, the Sleep latency ([5]; 50mg, Actigraphy 3) was 4.40 ± 4.40 min and the Total sleep time ([5]; 50mg, Actigraphy 3) was 476.00 ± 91.94 min. It also gave a WASO ([5]; 50mg, Actigraphy 3) of 73 ± 26.45 min, an Awakenings ([5]; 75mg, Actigraphy 1) of 12.64±2.57 and a Sleep latency ([5]; 75mg, Actigraphy 1) of 6.77 ± 5.96 min. For the same compound, the Total sleep time ([5]; 75mg, Actigraphy 1) was 75 mg 486.00±151.70 min, the WASO ([5]; 75mg, Actigraphy 1) was 82.33 ± 20.21 min and the Awakenings ([5]; 75mg, Actigraphy 2) was 11.37±1.56. It also gave a Sleep latency ([5]; 75mg, Actigraphy 2) of 5.28 ± 4.71 min, a Total sleep time ([5]; 75mg, Actigraphy 2) of 514.10 ± 166.50 min and a WASO ([5]; 75mg, Actigraphy 2) of 88.29 ± 20.62 min. The Awakenings ([5]; 75mg, Actigraphy 3) was 11.71±2.54£2, the Sleep latency ([5]; 75mg, Actigraphy 3) was 7.33 ± 7.90 min and the Total sleep time ([5]; 75mg, Actigraphy 3) was 498.60 ± 126.30 min. The WASO ([5]; 75mg, Actigraphy 3) was 83.44 ± 32.30 min, the Awakenings ([5]; no dose stated, Actigraphy 1) was 12.84±3.37@ and the Sleep latency ([5]; no dose stated, Actigraphy 1) was 6.37 ± 5.60 min. The Total sleep time ([5]; no dose stated, Actigraphy 1) was 470.90 ± 122.70 min, the WASO ([5]; no dose stated, Actigraphy 1) was 84.20 ± 26.09 min and the Awakenings ([5]; no dose stated, Actigraphy 2) was 10.92±2.89. For the same compound, the Sleep latency ([5]; no dose stated, Actigraphy 2) was 6.47 ± 6.51 min, the Total sleep time ([5]; no dose stated, Actigraphy 2) was 491.90 ± 121.50 min and the Awakenings ([5]; no dose stated, Actigraphy 3) was 11.49±3.186@#. The Sleep latency ([5]; no dose stated, Actigraphy 3) was 5.50 ± 5.97 min, the Total sleep time ([5]; no dose stated, Actigraphy 3) was 484.50 ± 104.00 min and the WASO ([5]; no dose stated, Actigraphy 3) was 73.00 ± 26.45 min. The pKa [6] was 6.74, the “Hamilton Depression Scale” value ([7]; 50 mg, Consultation 1) was 16.31±8.60@# and the “Insomnia Severity Scale” value ([7]; 50 mg, Consultation 1) was 19.88±4.04@#. The Nights with awakenings/week ([7]; 50 mg, Consultation 1) was 3.00±0.00@, the “Pittsburgh Sleep Quality Questionnaire” value ([7]; 50 mg, Consultation 1) was 14.13±3.11@# and the “Hamilton Depression Scale” value ([7]; 50 mg, Consultation 2) was 11.88±6.06@. The “Insomnia Severity Scale” value ([7]; 50 mg, Consultation 2) was 17.69±6.18&*, the Nights with awakenings/week ([7]; 50 mg, Consultation 2) was 2.40±1.05 and the “Pittsburgh Sleep Quality Questionnaire” value ([7]; 50 mg, Consultation 2) was 11.19±2.90. The “Hamilton Depression Scale” value ([7]; 50 mg, Consultation 3) was 11.13±6.98, the “Insomnia Severity Scale” value ([7]; 50 mg, Consultation 3) was 11.14±7.24#& and the Nights with awakenings/week ([7]; 50 mg, Consultation 3) was 2.00±1.17. The “Hamilton Depression Scale” value ([7]; 50 mg, Consultation 4) was 7,875±4.28, the “Insomnia Severity Scale” value ([7]; 50 mg, Consultation 4) was 7.50±4.48@# and the Nights with awakenings/week ([7]; 50 mg, Consultation 4) was 1.06±1.39@#. For the same compound, the “Pittsburgh Sleep Quality Questionnaire” value ([7]; 50 mg, Consultation 4) was 9.81±3.50@, the “Hamilton Depression Scale” value ([7]; 75 mg, Consultation 1) was 18.31±11.41@ and the “Insomnia Severity Scale” value ([7]; 75 mg, Consultation 1) was 21.08±3.84@. The Nights with awakenings/week ([7]; 75 mg, Consultation 1) was 2.84±0.55, the “Pittsburgh Sleep Quality Questionnaire” value ([7]; 75 mg, Consultation 1) was 13.54±3.43@ and the “Hamilton Depression Scale” value ([7]; 75 mg, Consultation 2) was 14.85±6.65. The “Insomnia Severity Scale” value ([7]; 75 mg, Consultation 2) was 19.75±3.84, the Nights with awakenings/week ([7]; 75 mg, Consultation 2) was 3.00±0.00 and the “Pittsburgh Sleep Quality Questionnaire” value ([7]; 75 mg, Consultation 2) was 12.77±2.20. The “Hamilton Depression Scale” value ([7]; 75 mg, Consultation 3) was 12.5±6.81, the “Insomnia Severity Scale” value ([7]; 75 mg, Consultation 3) was 16.69±8.34 and the Nights with awakenings/week ([7]; 75 mg, Consultation 3) was 2.58±0.90. The “Pittsburgh Sleep Quality Questionnaire” value ([7]; 75 mg, Consultation 3) was 13.58±3.08, the “Hamilton Depression Scale” value ([7]; 75 mg, Consultation 4) was 8.08±3.57@# and the “Insomnia Severity Scale” value ([7]; 75 mg, Consultation 4) was 7,33±5,61@#. The Nights with awakenings/week ([7]; 75 mg, Consultation 4) was 1.38±1.55, the “Pittsburgh Sleep Quality Questionnaire” value ([7]; 75 mg, Consultation 4) was 9.91±3.26@# and the “Hamilton Depression Scale” value ([7]; no dose stated, Consultation 1) was 17,21±9,82@#. The “Insomnia Severity Scale” value ([7]; no dose stated, Consultation 1) was 20.41±3.93@#, the Nights with awakenings/week ([7]; no dose stated, Consultation 1) was 2.93±0.37@ and the “Pittsburgh Sleep Quality Questionnaire” value ([7]; no dose stated, Consultation 1) was 13.86±3.21@. The “Hamilton Depression Scale” value ([7]; no dose stated, Consultation 2) was 13.21±6.40&*, the “Insomnia Severity Scale” value ([7]; no dose stated, Consultation 2) was 18.57±5.32&* and the Nights with awakenings/week ([7]; no dose stated, Consultation 2) was 2.67±0.82. The “Pittsburgh Sleep Quality Questionnaire” value ([7]; no dose stated, Consultation 2) was 11.9±2.69, the “Hamilton Depression Scale” value ([7]; no dose stated, Consultation 3) was 11,74±6,80#& and the “Insomnia Severity Scale” value ([7]; no dose stated, Consultation 3) was 13.81±8.14#&. For the same compound, the Nights with awakenings/week ([7]; no dose stated, Consultation 3) was 2.26±1.08, the “Pittsburgh Sleep Quality Questionnaire” value ([7]; no dose stated, Consultation 3) was 12.59±3.68 and the “Hamilton Depression Scale” value ([7]; no dose stated, Consultation 4) was 7.96±3.93@*. For the same compound, the “Insomnia Severity Scale” value ([7]; no dose stated, Consultation 4) was 7.42±4.90@#, the Nights with awakenings/week ([7]; no dose stated, Consultation 4) was 1.20±1.45@# and the “Pittsburgh Sleep Quality Questionnaire” value ([7]; no dose stated, Consultation 4) was 9.85±3.34@#. For the same compound, the Sleep latency ([7]; 50mg, Consultation 1) was 50.5 ± 40.46 min, the Total sleep time ([7]; 50mg, Consultation 1) was 273.80 ± 95.42 min and the Sleep latency ([7]; 50mg, Consultation 2) was 37.19 ± 20.00 min. The Total sleep time ([7]; 50mg, Consultation 2) was 307.50 ± 75.50 min, the Sleep latency ([7]; 50mg, Consultation 3) was 42,56±47,20 min and the Total sleep time ([7]; 50mg, Consultation 3) was 348.80 ± 103.30 min. It also gave a Sleep latency ([7]; 50mg, Consultation 4) of 26.31 ± 25.20 min, a Sleep latency ([7]; 75mg, Consultation 1) of 93.08 ± 99.11 min and a Total sleep time ([7]; 75mg, Consultation 1) of 281.50 ± 128.20 min. It also gave a Sleep latency ([7]; 75mg, Consultation 2) of 69.69 ± 43.86 min, a Total sleep time ([7]; 75mg, Consultation 2) of 272.30 ± 87.00 min and a Sleep latency ([7]; 75mg, Consultation 3) of 63.08 ± 53.17 min. The Total sleep time ([7]; 75mg, Consultation 3) was 290.80 ± 72.85 min, the Sleep latency ([7]; 75mg, Consultation 4) was 33.85 ± 25.67 min and the Total sleep time ([7]; 75mg, Consultation 4) was 378.50 ± 89.61 min. For the same compound, the Sleep latency ([7]; no dose stated, Consultation 1) was 69,59±74,51@ min, the Total sleep time ([7]; no dose stated, Consultation 1) was 277.20±109.20@ min and the Sleep latency ([7]; no dose stated, Consultation 2) was 51.76 ± 36.18 min. For the same compound, the Total sleep time ([7]; no dose stated, Consultation 2) was 291.70 ± 81.33 min, the Sleep latency ([7]; no dose stated, Consultation 3) was 51.76 ± 50.13 min and the Total sleep time ([7]; no dose stated, Consultation 3) was 322.80 ± 94.07 min. For the same compound, the Sleep latency ([7]; no dose stated, Consultation 4) was 29,69±25,24@# min, the Total sleep time ([7]; no dose stated, Consultation 4) was 341.80±110.00@ min and the maintaining sleep [8] was “effective”. For the same compound, the “sleep quality and sexual dysfunction” value [1] was “improved” and the treatment of insomnia [9] was “safe and effective”.
